Reference: US20090018146A1, “Combination Therapy with Triterpenoid Compounds and Proteasome Inhibitors” (Research Development Corporation, priority 2005, published 2009)

Assays:
Hsp90 = test: Western blot of Hsp90 protein in avicin D treated Jurkat cells; format: cell-based, human; settings: avicin D 1 μM, within one hour up to 4 hours, western blot vs untreated
Method: (§1) Jurkat T cells (2 μg/ml=1 μM), U-937 (4 μg/ml), MJ (5 μg/ml), and HH cells (2.5 μg/ml) were treated for 0-24 hours with the indicated concentrations of avicin D. PBLs from the patients or normal blood were treated with 5 μg/ml of avicin D for 24 hours.
(§2) At the end of treatments, cells were harvested, washed with sterile ice-cold PBS and cytoplasmic extracts (CE) were prepared by lysing the cells in CE buffer containing 10 mM Hepes-Cl pH 7.5, 10 mM KCl, 0.1 mM EDTA, 0.1 mM EGTA, 0.3% NP40, and a protease inhibitor cocktail (Sigma). After centrifugation and separating the supernatant (CE proteins), the pellet was resuspended in a buffer containing 20 mM Hepes-Cl, 400 mM NaCl, 1 mM EDTA, 1 mM EGTA, and protease inhibitor cocktail (Sigma). The nuclear protein extraction proceeded for 30 min. on ice followed by centrifugation at 14,000 rpm for 5 min at 4° C. The clear supernatant containing nuclear proteins (NE) was collected, glycerol (10%) was added, and proteins stored at −80° C. until use.
(§3) SDS-PAGE and immunoblot procedures were essentially performed as described (Sambrook, 1989). […] Protein bands were detected using the ECL chemiluminescence kit from Amersham as per the manufacturer's protocol.
(§4) Quantitation of proteins (western) and transcripts (RT-PCR) was performed using the NIH 1.61 image software.

Hsp70α transcript = test: One-step RT-PCR of Hsp70α transcript in Jurkat cells; format: cell-based, human; settings: as early as 30 minutes
Method: (§5) Total RNA purified using Trizol method (Invitrogen) was subjected to DNAseI (RNAase free, Sigma Chemical Co.) treatment to remove any residual DNA, followed by heat inactivation and addition of 1 mM EDTA. Absence of genomic DNA was confirmed by performing PCR using Taq DNA polymerase. About 50-100 ng of purified total RNA was used in a one-step RT-PCR reaction kit from Invitrogen in a Techne Genius machine. The samples were separated on 0.8% agarose-TBE gels and viewed by staining with ethidium bromide.
as §4

XIAP [1] = test: Western blot of XIAP protein in Jurkat cells; format: cell-based, human
Method: as §1, §2
(§6) SDS-PAGE and immunoblot procedures were essentially performed as described (Sambrook, 1989). Briefly, cytoplasmic and nuclear proteins were resolved on SDS-PAGE, blotted on PVDF membranes (BioRad) and probed with various antibodies followed with anti-rabbit, anti-mouse antibody conjugated to horseradish peroxidase (HRP) from BioRad or HRP conjugated anti-goat antibody from Santa Cruz Biotechnology, corresponding to the primary antibody. Protein bands were detected using the ECL chemiluminescence kit from Amersham as per the manufacturer's protocol.
as §4

Hsp90β transcript = test: One-step RT-PCR of Hsp90β transcript in Jurkat cells; format: cell-based, human; settings: as early as 30 minutes
Method: as §5, §4

[2] = system: Hsc70, Hsp60, grp75, calnexin; test: Western blot of other chaperone proteins in avicin D treated Jurkat cells; format: cell-based, human; settings: avicin D 1 μM, up to 4 hours
Method: as §1, §2, §3, §4

his-ub-Hsp70 = test: In vivo ubiquitination of Hsp70 in his-ub transfected Jurkat cells; format: cell-based, human; settings: his-ub transfected Jurkat cells, avicin D 1 μM, 2 and 4 hours, p<0.05
Method: Jurkat T-cells were transfected with a plasmid pDG268 that expresses a fusion protein of histidine-tagged human ubiquitin and enhanced GFP. Transfection was performed using μm ax a Biosystems kit and their protocol. After 24 hours of transfection, cells were harvested, resuspended at a density of 10^6 cells/ml before treatment with lactacystin or avicin D.
Jurkat T cells transfected with the his-ub plasmid construct were treated with lactacystin (10 μM) or with avicin D (1 μM) for 4 hours. Cells were harvested and CE prepared as described above. […] The affinity purified histidine-tagged proteins were separated on SDS-PAGE and analyzed on western blots for ub-Hsp70 proteins.

Hsp27 = test: Western blot of Hsp27 protein in avicin D treated Jurkat cells; format: cell-based, human; settings: avicin D 1 μM, 2-4 hours
Method: as §1, §2, §3, §4

Hsp70 [3] = test: Western blot of Hsp70 in leukemic/lymphoma cell-lines; format: cell-based, human; settings: Jurkat, U937, MJ-1, and HH cells, 24 hours post-treatment
Method: Human Jurkat T cell leukemia, monocytic U937 cells, and cutaneous T-cell lymphoma (CTCL) cell lines MJ (G11) and HH were obtained from American Type Culture Collection (Rockville, Md.) and grown in RPMI 1640 medium supplemented with 10% FBS and 2 mM glutamine.
as §1
as §2, with “The nuclear protein extraction proceeded for 30 min. on ice followed by centrifugation at 14,000 rpm for 5 min at 4° C. The clear supernatant containing nuclear proteins (NE) was collected, glycerol (10%) was added, and proteins stored at −80° C. until use.” left out
as §3, §4

Hsp70 [4] = test: Western blot of Hsp70 in primary PBL from Sezary syndrome patients; format: cell-based, human; settings: 5 μg/ml, 24 hours
Method: as §1, §2, §3, §4

XIAP [5] = test: Western blot of XIAP in primary PBL from Sezary syndrome patients; format: cell-based, human; settings: 5 μg/ml, 24 hours
Method: as §1, §2, §3, §4

Hsp70 [6] = test: Western blot of Hsp70 protein in avicin D treated Jurkat cells; format: cell-based, human; settings: avicin D 1 μM, within one hour up to 4 hours, western blot vs untreated
Method: as §1, §2, §6, §4

XIAP [7] = test: Western blot of XIAP in normal PBL; format: cell-based, human; settings: PBL from a normal blood sample, 5 μg/ml, 24 hours
Method: as §1, §2, §3

recombinant Hsp70 = test: In vitro ubiquitination assay with recombinant Hsp70, his-ub and CE proteins of treated cells; format: biochemical, bovine; settings: cytoplasmic extracts of treated vs untreated Jurkat cells
Method: Ubiquitination assays were performed as described (Firestein and Feuerstein, 1998) with few modifications using recombinant bovine Hsp70 and N-terminal histidine-tagged ubiquitin (his-ub). About 0.5 μg of Hsp70 and 4 μg of his-ub were incubated in a buffer containing 50 mM Tris-Cl pH 7.5, 2.5 mM MgCl2, 0.05% NP 40, 0.5 mM DTT, 5 mM ATP, 4 μM MG132, and ATP regenerating system containing 10 mM creatine phosphate, 0.1 μg/ml of creatine kinase, and about 50 μg of CE proteins. The reaction was carried out for 1 hour at 30° C. and the products were subjected to nickel agarose chromatographic purification to purify histidine-tagged proteins as per manufacturer's protocol (Qiagen). The affinity-purified proteins were prepared for SDS-PAGE and western analysis using anti-Hsp70 antibodies.

E3α ubiquitin ligase = test: Western blot of E3α ubiquitin ligase in Jurkat cells; format: cell-based, human; settings: peak at one hour of treatment
Method: as §1, §2, §3

Hsp70 transcript = test: Northern blot of Hsp70 transcript in Jurkat cells; format: cell-based, human
Excerpt: Total RNA from the control and avicin treated Jurkat T cells was made using Trizol (Invitrogen). Equal amounts of RNA were separated on form amide gels and transferred to nylon membranes (Hybond N+, Amersham) and UV cross-linked using UV Stratalinker (Stratagene). Staining the membranes with 0.03% methylene blue solution in 0.3% sodium acetate, pH 5.2, monitored equal loading. The DNA probes for Hsp70 and Hsp90 were purchased from StressGen as pUC plasmids and used according to the manufacturer's protocol. The DNA fragments were radiolabeled using a Nick Translation kit from Gibco BRL and [^32P] dCTP (Amersham). The membranes were exposed for autoradiography after hybridization using ExpressHyb (Clontech) solution at 58° C. for 1 hour and 5 washes, each of 20 minutes, with 5× SSC containing 0.1% SDS at 50° C.

SMILES: C=C[C@](C)(O)CC/C=C(\CO)C(=O)O[C@H]1[C@H](O)[C@@H](O)[C@H](O[C@@](C)(C=C)CC/C=C(\CO)C(=O)O[C@H]2C[C@]3(C(=O)O[C@@H]4O[C@H](CO)[C@@H](O)[C@H](O)[C@H]4O[C@@H]4O[C@@H](C)[C@H](O[C@@H]5O[C@@H](CO)[C@H](O)[C@H]5O)[C@@H](O[C@@H]5O[C@H](CO)[C@@H](O)[C@H](O)[C@H]5O)[C@H]4O)[C@H](O)C[C@]4(C)C(=CC[C@@H]5[C@@]6(C)CC[C@H](O[C@@H]7O[C@H](CO[C@@H]8O[C@H](C)[C@H](O)[C@H](O)[C@H]8O[C@@H]8OC[C@@H](O)[C@H](O)[C@H]8O)[C@@H](O)[C@H](O)[C@H]7NC(C)=O)C(C)(C)[C@@H]6CC[C@]54C)[C@@H]3CC2(C)C)O[C@@H]1C [avicin D]
- protein levels of Hsp90 (Hsp90): significant decrease
- increase in the Hsp70α transcript (RT-PCR) (Hsp70α transcript): ~1.6 fold
- XIAP degraded (XIAP [1]; by 1 hour): ~60%
- XIAP protein level (XIAP [1]; starting at 1 hour post treatment): significant decrease
- increase in the Hsp90β transcript (RT-PCR) (Hsp90β transcript): ~1.4 fold
- expression of other chaperone proteins (Hsc70, Hsp60, grp75, calnexin) [2]: did not show any change
- decrease in the levels of his-ub-Hsp70 protein band (his-ub-Hsp70): 40%
- increase of Hsp27 (Hsp27): 1.4 fold
- Hsp70 protein level (Hsp70 [3]): significant decrease
- decrease in Hsp70 protein (Hsp70 [4]): 25-35%
- decrease in XIAP protein (XIAP [5]): 30-40%
- protein levels of Hsp70 (Hsp70 [6]): significant decrease
- change in XIAP protein (XIAP [7]): no significant change
- in vitro ubiquitination of Hsp70 (his-ub-Hsp70 ladder) (recombinant Hsp70): stronger ladder of his-ub-Hsp70
- E3α protein level (E3α ubiquitin ligase): dramatic increase
- increase in Hsp70 transcript (Northern blot) (Hsp70 transcript): ~1.4 fold
